From the CheMixHub ionic liquid set
± gives the uncertainty stated by the source.

Assay: xn = mol fraction of the nth substance listed

CC[N+](C)(CC)CCOC.F[B-](F)(F)F + O=C1CCCO1
101 kPa
Conditions	electrical conductivity [S/m]	viscosity [mPa·s]
288.15 K, x1 = 0.1006	0.841 ± 0.01	6.82 ± 0.15
288.15 K, x1 = 0.2004	0.851 ± 0.01	9.23 ± 0.2
288.15 K, x1 = 0.3005	0.691 ± 0.01	16.02 ± 0.34
288.15 K, x1 = 0.4002	0.57 ± 0.01	23.81 ± 0.51
288.15 K, x1 = 0.4999	0.424 ± 0.01	63.2 ± 1.4
288.15 K, x1 = 0.6001	0.29 ± 0.01	103.1 ± 3.1
288.15 K, x1 = 0.6998	0.215 ± 0.01	157.6 ± 6.4
288.15 K, x1 = 0.7999	0.164 ± 0.01	213 ± 10
293.15 K, x1 = 0.1006	0.951 ± 0.01	5.32 ± 0.11
293.15 K, x1 = 0.2004	0.976 ± 0.01	7.92 ± 0.17
293.15 K, x1 = 0.3005	0.817 ± 0.01	13.79 ± 0.29
293.15 K, x1 = 0.4002	0.688 ± 0.01	20.66 ± 0.44
293.15 K, x1 = 0.4999	0.522 ± 0.01	49.1 ± 1
293.15 K, x1 = 0.6001	0.377 ± 0.01	78.1 ± 1.9
293.15 K, x1 = 0.6998	0.298 ± 0.01	116.8 ± 3.8
293.15 K, x1 = 0.7999	0.227 ± 0.01	155.5 ± 6.3
298.15 K, x1 = 0.1006	1.06 ± 0.011	4.185 ± 0.089
298.15 K, x1 = 0.2004	1.114 ± 0.011	6.94 ± 0.15
298.15 K, x1 = 0.3005	0.956 ± 0.01	11.91 ± 0.25
298.15 K, x1 = 0.4002	0.811 ± 0.01	17.89 ± 0.38
298.15 K, x1 = 0.4999	0.641 ± 0.01	38.49 ± 0.82
298.15 K, x1 = 0.6001	0.472 ± 0.01	59.7 ± 1.2
298.15 K, x1 = 0.6998	0.389 ± 0.01	86.9 ± 2.3
303.15 K, x1 = 0.1006	1.18 ± 0.012	3.324 ± 0.071
303.15 K, x1 = 0.2004	1.26 ± 0.013	6.02 ± 0.13
303.15 K, x1 = 0.3005	1.113 ± 0.011	10.17 ± 0.22
303.15 K, x1 = 0.4002	0.971 ± 0.01	15.32 ± 0.33
303.15 K, x1 = 0.4999	0.783 ± 0.01	30.01 ± 0.64
303.15 K, x1 = 0.6001	0.596 ± 0.01	45.3 ± 0.97
303.15 K, x1 = 0.6998	0.503 ± 0.01	64.6 ± 1.4
308.15 K, x1 = 0.1006	1.28 ± 0.013	2.671 ± 0.057
308.15 K, x1 = 0.2004	1.433 ± 0.014	5.26 ± 0.11
308.15 K, x1 = 0.3005	1.28 ± 0.013	8.82 ± 0.19
308.15 K, x1 = 0.4002	1.126 ± 0.011	13.39 ± 0.29
308.15 K, x1 = 0.4999	0.927 ± 0.01	24.01 ± 0.51
308.15 K, x1 = 0.6001	0.725 ± 0.01	35.23 ± 0.75
308.15 K, x1 = 0.6998	0.615 ± 0.01	48.3 ± 1
313.15 K, x1 = 0.1006	1.416 ± 0.014	2.197 ± 0.047
313.15 K, x1 = 0.2004	1.606 ± 0.016	4.633 ± 0.099
313.15 K, x1 = 0.3005	1.47 ± 0.015	7.63 ± 0.16
313.15 K, x1 = 0.4002	1.29 ± 0.013	11.62 ± 0.25
313.15 K, x1 = 0.4999	1.09 ± 0.011	19.44 ± 0.41
313.15 K, x1 = 0.6001	0.868 ± 0.01	27.85 ± 0.59
313.15 K, x1 = 0.6998	0.745 ± 0.01	36.75 ± 0.78
318.15 K, x1 = 0.1006	1.55 ± 0.016	1.855 ± 0.04
318.15 K, x1 = 0.2004	1.78 ± 0.018	4.085 ± 0.087
318.15 K, x1 = 0.3005	1.65 ± 0.017	6.55 ± 0.14
318.15 K, x1 = 0.4002	1.48 ± 0.015	10.01 ± 0.21
318.15 K, x1 = 0.4999	1.27 ± 0.013	15.67 ± 0.33
318.15 K, x1 = 0.6001	1.04 ± 0.01	21.94 ± 0.47
318.15 K, x1 = 0.6998	0.878 ± 0.01	27.84 ± 0.59
323.15 K, x1 = 0.1006	1.69 ± 0.017	1.577 ± 0.034
323.15 K, x1 = 0.2004	1.97 ± 0.02	3.603 ± 0.077
323.15 K, x1 = 0.3005	1.839 ± 0.018	5.68 ± 0.12
323.15 K, x1 = 0.4002	1.68 ± 0.017	8.77 ± 0.19
323.15 K, x1 = 0.4999	1.46 ± 0.015	12.42 ± 0.26
323.15 K, x1 = 0.6001	1.22 ± 0.012	16.68 ± 0.36
323.15 K, x1 = 0.6998	1.02 ± 0.01	20.94 ± 0.45
328.15 K, x1 = 0.1006	1.827 ± 0.018	1.35 ± 0.029
328.15 K, x1 = 0.2004	2.15 ± 0.022	3.183 ± 0.068
328.15 K, x1 = 0.3005	2.05 ± 0.021	4.95 ± 0.11
328.15 K, x1 = 0.4002	1.89 ± 0.019	7.71 ± 0.16
328.15 K, x1 = 0.4999	1.66 ± 0.017	10.11 ± 0.22
328.15 K, x1 = 0.6001	1.41 ± 0.014	13.1 ± 0.28
328.15 K, x1 = 0.6998	1.21 ± 0.012	15.79 ± 0.34
333.15 K, x1 = 0.1006	1.96 ± 0.02	1.142 ± 0.025
333.15 K, x1 = 0.2004	2.34 ± 0.023	2.827 ± 0.06
333.15 K, x1 = 0.3005	2.25 ± 0.023	4.282 ± 0.091
333.15 K, x1 = 0.4002	2.1 ± 0.021	6.74 ± 0.14
333.15 K, x1 = 0.4999	1.86 ± 0.019	8.58 ± 0.18
333.15 K, x1 = 0.6001	1.63 ± 0.016	11.02 ± 0.23
333.15 K, x1 = 0.6998	1.404 ± 0.014	12.64 ± 0.27
338.15 K, x1 = 0.1006	2.08 ± 0.021	0.992 ± 0.021
338.15 K, x1 = 0.2004	2.53 ± 0.025	2.498 ± 0.053
338.15 K, x1 = 0.3005	2.47 ± 0.025	3.693 ± 0.079
338.15 K, x1 = 0.4002	2.32 ± 0.023	5.89 ± 0.13
338.15 K, x1 = 0.4999	2.09 ± 0.021	6.92 ± 0.15
338.15 K, x1 = 0.6001	1.86 ± 0.019	8.55 ± 0.18
338.15 K, x1 = 0.6998	1.607 ± 0.016	9.17 ± 0.19
343.15 K, x1 = 0.1006	2.21 ± 0.022	0.876 ± 0.019
343.15 K, x1 = 0.2004	2.73 ± 0.027	2.235 ± 0.048
343.15 K, x1 = 0.3005	2.68 ± 0.027	3.194 ± 0.068
343.15 K, x1 = 0.4002	2.54 ± 0.025	5.15 ± 0.11
343.15 K, x1 = 0.4999	2.29 ± 0.023	5.85 ± 0.13
343.15 K, x1 = 0.6001	2.1 ± 0.021	7.16 ± 0.15
343.15 K, x1 = 0.6998	1.85 ± 0.019	6.87 ± 0.15
348.15 K, x1 = 0.1006	2.35 ± 0.024	0.795 ± 0.017
348.15 K, x1 = 0.2004	2.92 ± 0.029	2.001 ± 0.043
348.15 K, x1 = 0.3005	2.91 ± 0.029	2.754 ± 0.059
348.15 K, x1 = 0.4002	2.79 ± 0.028	4.507 ± 0.096
348.15 K, x1 = 0.4999	2.56 ± 0.026	4.69 ± 0.1
348.15 K, x1 = 0.6001	2.35 ± 0.024	5.48 ± 0.12
348.15 K, x1 = 0.6998	2.08 ± 0.021	5.52 ± 0.12
353.15 K, x1 = 0.1006	2.48 ± 0.025	0.716 ± 0.015
353.15 K, x1 = 0.2004	3.14 ± 0.031	1.753 ± 0.037
353.15 K, x1 = 0.3005	3.11 ± 0.031	2.391 ± 0.051
353.15 K, x1 = 0.4002	3.04 ± 0.03	4.028 ± 0.086
353.15 K, x1 = 0.4999	2.82 ± 0.028	3.864 ± 0.082
353.15 K, x1 = 0.6001	2.62 ± 0.026	4.301 ± 0.092
353.15 K, x1 = 0.6998	2.36 ± 0.024	3.983 ± 0.085

CC[n+]1ccn(C)c1.O=S(=O)([O-])C(F)(F)F + O=S(=O)([N-]S(=O)(=O)C(F)(F)F)C(F)(F)F.[Li+]
101 kPa, x1 = 1
Conditions	electrical conductivity [S/m]
288.15 K	0.605 ± 0.061
298.15 K	0.859 ± 0.086
333.15 K	2.24 ± 0.22

OCC(O)CO + CCCCCCCCCCCC[P+](CC)(CC)CC.N#Cc1ccc[n-]1
100 kPa, x2 = 0
Conditions	viscosity [mPa·s]
293.15 K	1360 ± 210
298.15 K	860 ± 130
303.15 K	542 ± 80
313.15 K	217 ± 32

CCCCCCCC[n+]1ccc2ccccc2c1.O=S(=O)([N-]S(=O)(=O)C(F)(F)F)C(F)(F)F + c1ccsc1
101 kPa
Conditions	viscosity [mPa·s]
298.15 K, x2 = 0.542	42.73 ± 0.94
298.15 K, x2 = 0.821	7.64 ± 0.16
308.15 K, x2 = 0.0964	158.7 ± 6.6
308.15 K, x2 = 0.542	27.8 ± 0.61
308.15 K, x2 = 0.6385	16.12 ± 0.35
308.15 K, x2 = 0.821	6.02 ± 0.13
308.15 K, x2 = 0.9065	2.78 ± 0.06
318.15 K, x2 = 0	108.7 ± 3.6
318.15 K, x2 = 0.0964	92.2 ± 2.7
318.15 K, x2 = 0.2739	54.7 ± 1.2
318.15 K, x2 = 0.9065	2.36 ± 0.05
338.15 K, x2 = 0.3572	20.4 ± 0.46
348.15 K, x2 = 0.4456	11.37 ± 0.25

CCCC[P+](CC)(CCCC)CCCC.[Br-] + OCCOCCO
101 kPa, x1 = 0.333
Conditions	viscosity [mPa·s]
333.15 K	23.07 ± 0.24
353.15 K	12.73 ± 0.13

II + CCCC[n+]1ccn(C)c1.[I-]
Conditions	electrical conductivity [S/m]
298 K, 101.3 kPa, x2 = 0.333	3.07 ± 0.31

CCCCCC[n+]1ccn(C)c1.N[C@@H](CCC(=O)O)C(=O)[O-] + O
298.15 K, 100 kPa
Conditions	electrical conductivity [S/m]
x1 = 0.001278	0.2317 ± 0.0023
x1 = 0.002014	0.338 ± 0.0034
x1 = 0.00309	0.46 ± 0.01
x1 = 0.004145	0.577 ± 0.0059
x1 = 0.004824	0.676 ± 0.0069
x1 = 0.00584	0.783 ± 0.0079
x1 = 0.007281	0.923 ± 0.0093
x1 = 0.008947	1.011 ± 0.01
x1 = 0.01064	1.107 ± 0.011
x1 = 0.01274	1.2 ± 0.012
x1 = 0.01517	1.26 ± 0.013
x1 = 0.01798	1.28 ± 0.013

[Br-].[Li+] + CCCCCC[n+]1ccn(C)c1.N#C[S-] + CN1CCCC1=O
298.15 K, 101 kPa
Conditions	viscosity [mPa·s]
x2 = 0, x1 = 0.02735	2.37 ± 0.029
x2 = 0, x1 = 0.05202	3.192 ± 0.038
x2 = 0, x1 = 0.07626	4.329 ± 0.05
